≈ marks a conversion by molar mass, not a printed value. Where two headings read alike, the source gives them in different places. Residues, ends and D or L forms follow the SMILES beside them.
Tests used:
[1] = test system: Staphylococcus aureus (ATCC6538); assay: microbe, parasite or virus in culture; format: cell-based
From the text: (§1) The standard strain of Staphylococcus aureus (S. aureus, ATCC6538), Escherichia coli (E. coli, ATCC25922), Pseudomonas aeruginosa (P. aeruginosa, ATCC9027), Acinetobacter baumannii (A. baumannii, ATCC19606) and Candida albicans (C. albicans, ATCC/0331) used in this experiment was purchased from the microbial strain collection center of Guangdong Province. The methicillin resistant strain of Staphylococcus aureus (MRSA, SAZ) and clinically isolated antibiotic-resistance strains (SA115775 and SA15192) were clinically isolated from the First Affiliated Hospital of Kunming Medical University. The strains of C. albicans were cultured in 1/3 YM Medium (HB0297-1) + 2/3 RPMI 1640 medium (10-040-CVR, Corning), and other bacterial strains were cultured in Luria-Bertani (LB: 2 g tryptone, 1 g yeast extract, 2 g sodium chloride and 200 ml deionized water) broth.
(§2) Briefly, bacteria strains were diluted and adjusted to the concentration of 2 × 10^5 CFU/ml using RPMI 1640 medium. Samples were prepared as a stock solution in saline, and then diluted to a series of concentrations. 100 μl bacterial suspension and 100 μl samples at the indicated concentration were put together in 96-well plates and incubated at 37°C for 16 h. Finally, an absorbance at 600 nm was measured by a microplate reader to estimate bacterial growth. The MIC was defined as the lowest concentration where the bacterial growth could not be detected completely.

[2] = test system: Staphylococcus aureus (SA115775); assay: microbe, parasite or virus in culture; format: cell-based; conditions: 16 h
From the text: as §1, §2

[3] = test system: Staphylococcus aureus (SA15192); assay: microbe, parasite or virus in culture; format: cell-based; conditions: 16 h
From the text: as §1, §2

[4] = test system: methicillin-resistant Staphylococcus aureus (MRSA-Z); assay: microbe, parasite or virus in culture; format: cell-based; conditions: 16 h
From the text: as §1, §2

[5] = test system: Candida albicans (ATCC/0331); format: cell-based; conditions: C. albicans ATCC/0331; broth dilution, 37°C, 16 h
From the text: as §1, §2

[6] = test system: Escherichia coli (ATCC25922); format: cell-based; conditions: E. coli ATCC25922; broth dilution, 37°C, 16 h
From the text: as §1, §2

[7] = test system: human mature red blood cells; conditions: 1.32–169.01 μM, 30 min, 37°C, absorbance 540 nm, 3 independent experiments
Procedure: (§3) Hemolysis of testing sample was calculated as the percentage of Triton X-100-induced hemolysis.
as §3

C57BL/6 mice = assay: In vivo acute toxicity assay; design: species or system mouse; conditions: single dose 20 mg/kg and 40 mg/kg, intravenous (tail vein), male C57BL/6, n = 10, recorded 12-72 h
Procedure: Male C57BL/6 mice aged 6–8 weeks were randomly divided into 2 groups with 10 mice in each group. […] Then the death of mice was recorded at 12 h, 24 h, 36 h, 48 h, 60 h and 72 h, respectively.
[picture] Supplementary Figure 1. […] Male C57BL/6 mice aged 6–8 weeks were randomly divided into 2 groups (n = 10). […] Then the death of mice was recorded at 12 h, 24 h, 36 h, 48 h, 60 h and 72 h respectively.

[8] = test system: S. aureus (ATCC6538, MRSA-Z, SA15192, SA115775); conditions: 4.23 mM in 100% human plasma, 0-10 h, 37°C, disk diffusion, zone of inhibition, two independent experiments
Procedure: Residual antibacterial activity for each incubation time point was evaluated by disk diffusion assay. In brief, bacteria were seeded on nutrient agar plates, 6 mm paper disks were placed on top and 10 μl aliquots of the plasma-peptide mixture was added to the paper disks. After 24 h incubation, the inhibitory zones against S. aureus (ATCC6538, MRSA-Z, SA15192, SA115775) were measured and recorded.
Data represent mean ± SD of two independent experiments.

HEK293T cells = conditions: up to 169.01 μM, 24 h, CCK8, absorbance 450 nm; 3 independent experiments
in vitro = conditions: human, human plasma
Procedure: After incubation for 0, 2, 4, 6, 8 and 10 h at 37°C, an aliquot of 10 μl sample was taken for protein precipitation with an equal volume of 4% H3PO4, the mixture was vortex-mixed for 2 min and then centrifuged at 13000 rpm for 15 min at 4°C. 3 μl of supernatant was analyzed using reverse-phase high performance liquid chromatography (RP-HPLC), and the remaining peptide was calculated through the integrated peak area.

[9] = test system: Acinetobacter baumannii (ATCC19606); assay: MIC, broth dilution; format: cell-based; conditions: A. baumannii ATCC19606, 37°C, 16 h
From the text: as §1
as §2, with “100 μl bacterial suspension and 100 μl samples at the indicated concentration were put together in 96-well plates and incubated at 37°C for 16 h.” left out

[10] = test system: Pseudomonas aeruginosa (ATCC9027); assay: MIC, broth dilution; format: cell-based; conditions: P. aeruginosa ATCC9027, 37°C, 16 h
From the text: as §1
as §2, with “100 μl bacterial suspension and 100 μl samples at the indicated concentration were put together in 96-well plates and incubated at 37°C for 16 h.” left out

S. aureus (ATCC6538) [11] = assay: Bacterial killing kinetic assay; format: cell-based, Staphylococcus aureus; conditions: 1 ×, 5 × or 10 × MIC; RPMI 1640 with 10% FBS, 37°C; not completely killed in the time given
Procedure: (§4) The bacterial killing kinetic assay was performed according to the previous method with minor modifications ([Wei et al., 2015]). S. aureus (ATCC6538) and methicillin resistant strain of Staphylococcus aureus (MRSA, SAZ) were washed three times with saline and then resuspended with RPMI 1640 medium containing 10% FBS at the concentration of 2 × 10^5 CFU/ml. […] Ten microliter aliquots were extracted at each time point and diluted with fresh broth for 100 times, 100 μl of the dilution was seeded on agar plates. After incubation at 37°C for 24 h, the viable colonies were determined.
(§5) Ten microliter aliquots were extracted at each time point and diluted with fresh broth for 100 times, 100 μl of the dilution was seeded on agar plates. After incubation at 37°C for 24 h, the viable colonies were determined for the killing kinetic analysis. Data represent mean ± SD values of three independent experiments. *p < 0.05, **p < 0.01, ***p < 0.001.

[12] = test system: methicillin-resistant S. aureus (MRSA-Z); assay: Bacterial killing kinetic assay; format: cell-based, Staphylococcus aureus; conditions: 1 ×, 5 × and 10 × MIC; RPMI 1640 with 10% FBS, 37°C
Procedure: as §4, §5

S. aureus (ATCC6538) [13] = assay: Staphylococcus aureus intraperitoneal infection model; format: in vivo, C57BL/6 mice; conditions: CFU 4 h after administration, n = 6
Procedure: S. aureus (ATCC6538) and methicillin resistant strain of Staphylococcus aureus (MRSA, SAZ) were resuspended by saline with the concentration of 1 × 10^9 CFU/ml. […] 2 h later, samples were intraperitoneally injected with the concentration indicated. After 4 h of administration, mice were sacrificed, blood was collected via retro-orbital bleeding and lungs were harvested and homogenized in 1 ml of saline with a hand tissue grinder. 10-fold serial dilutions of the homogenates and blood were made in pyrogen-free NaCl and equal volumes were plated on LB agar plates and incubated at 37°C. CFU were counted after 24 h.
After 4 h of administration, mice were sacrificed, blood (A,C) and lung (B,D) were collected for the measurement of bacterial loads. Data represent mean ± SD values of six independent experiments. *p < 0.05, **p < 0.01, ***p < 0.001.

`C[C@H](NC(=O)CNC(=O)[C@H](Cc1c[nH]c2ccccc12)NC(=O)CN)C(=O)N[C@@H](CCCCN)C(=O)N[C@@H](CCCNC(=N)N)C(=O)N[C@@H](Cc1c[nH]c2ccccc12)C(=O)NCC(=O)N[C@@H](CCCCN)C(=O)N[C@@H](CCCNC(=N)N)C(=O)NCC(=O)N[C@@H](Cc1c[nH]c2ccccc12)C(=O)N[C@@H](CCCCN)C(=O)N[C@@H](Cc1c[nH]c2ccccc12)C(=O)N[C@@H](CCCCN)C(=O)N[C@@H](CCCNC(=N)N)C(=O)N[C@@H](Cc1c[nH]cn1)C(=O)N[C@@H](Cc1c[nH]c2ccccc12)C(N)=O` [GW18] (H-GWGAKRWGKRGWKWKRHW-NH2) gave an MIC ([1]; S. aureus ATCC6538, broth dilution, RPMI 1640, 2 × 10^5 CFU/ml, 37°C, 16 h, absorbance 600 nm, read-out: MIC) of 1.32 µM (≈ 3.12 µg/mL), an MIC ([2]; clinical isolate SA115775, broth dilution, RPMI 1640, 2 × 10^5 CFU/ml, 37°C, read-out: MIC) of 1.32 µM (≈ 3.12 µg/mL) and an MIC ([3]; clinical isolate SA15192, broth dilution, RPMI 1640, 2 × 10^5 CFU/ml, 37°C, read-out: MIC) of 1.32 µM (≈ 3.12 µg/mL). The MIC ([4]; MRSA-Z, broth dilution, RPMI 1640, 2 × 10^5 CFU/ml, 37°C, absorbance 600 nm, read-out: MIC) was 1.32 µM (≈ 3.12 µg/mL), the MIC [5] was >20 µM and the MIC [6] was 5.28 µM (≈ 12.5 µg/mL). For the same molecule, the Hemolytic activity [7] was “no obvious hemolytic activity”, the “Acute toxicity (death of mice)” value (C57BL/6 mice) was “no acute toxicity” and the “Antibacterial activity against S. aureus after incubation in human plasma” value [8] was “did not significantly affect”. For the same molecule, the “Cytotoxicity on HEK293T” value (HEK293T cells) was “no obvious cytotoxicity” and the remaining at 10 h, 4.23 μM (in vitro) was 57.6%.
Molecule `COc1cccc(OC)c1C(=O)N[C@@H]1C(=O)N2[C@@H]1SC(C)(C)[C@@H]2C(=O)O` [Methicillin, methicillin] has an MIC ([1]; Staphylococcus aureus, S. aureus ATCC6538, broth dilution, RPMI 1640, 2 × 10^5 CFU/ml, 37°C, 16 h, absorbance 600 nm, read-out: MIC) of 1.94 µM (≈ 0.738 µg/mL), an MIC ([2]; Staphylococcus aureus, clinical isolate SA115775, broth dilution, RPMI 1640, 2 × 10^5 CFU/ml, 37°C, read-out: MIC) of 62.1 µM (≈ 23.6 µg/mL) and an MIC ([3]; Staphylococcus aureus, clinical isolate SA15192, broth dilution, RPMI 1640, 2 × 10^5 CFU/ml, 37°C, read-out: MIC) of 15.5 µM (≈ 5.91 µg/mL). For the same molecule, the MIC ([4]; Staphylococcus aureus, MRSA-Z, broth dilution, RPMI 1640, 2 × 10^5 CFU/ml, 37°C, absorbance 600 nm, read-out: MIC) was > 124 µM.
For colistin, the MIC [6] was 0.56 µM, the MIC [9] was 0.56 µM and the MIC [10] was 0.56 µM.
`CN[C@H](CC(C)C)C(=O)N[C@H]1C(=O)N[C@@H](CC(N)=O)C(=O)N[C@H]2C(=O)N[C@H]3C(=O)N[C@H](C(=O)N[C@H](C(=O)O)c4cc(O)cc(O)c4-c4cc3ccc4O)[C@H](O)c3ccc(c(Cl)c3)Oc3cc2cc(c3O[C@@H]2O[C@H](CO)[C@@H](O)[C@H](O)[C@H]2O[C@H]2C[C@](C)(N)[C@H](O)[C@H](C)O2)Oc2ccc(cc2Cl)[C@H]1O` [Vancomycin, vancomycin] gave an MIC ([1]; Staphylococcus aureus, ATCC6538, 16 h) of 1.08 µM (≈ 1.57 µg/mL), an MIC ([2]; Staphylococcus aureus) of 1.08 µM (≈ 1.57 µg/mL) and an MIC ([3]; Staphylococcus aureus) of 2.16 µM (≈ 3.13 µg/mL). The MIC ([4]; Staphylococcus aureus, MRSA) was 0.54 µM (≈ 0.783 µg/mL), the “Time to completely kill the S. aureus” value (S. aureus (ATCC6538) [11]) was > 240 min and the “Time to completely kill the MRSA-Z” value [12] was 240 min. The “Dissemination of S. aureus (ATCC6538) from the peritoneal cavity to the blood” value (S. aureus (ATCC6538) [13]; GW18 2, 4, 8 mg/kg or vancomycin 2, 4 mg/kg ip 2 h after infection (2 × 10^8 CFU/mouse ip)) was “significantly suppressed” and the “Dissemination of S. aureus (ATCC6538) from the peritoneal cavity to the lung” value (S. aureus (ATCC6538) [13]; GW18 2, 4, 8 mg/kg or vancomycin 2, 4 mg/kg ip 2 h after infection) was “significantly suppressed”.
